Experimental data: ChEMBL document CHEMBL5543084, “Development of cannabidiol derivatives as potent broad-spectrum antibacterial agents with membrane-disruptive mechanism” (Eur J Med Chem, 2024)
In brackets after ≈: the same amount, converted by molar mass.

How the values were obtained:
Staphylococcus aureus [1] = assay: Drug resistance, ratio of MIC for Staphylococcus aureus NCTC 10442 after 21 passages to MIC for Staphylococcus aureus NCTC 10442 during first exposure; format: functional
Pseudomonas aeruginosa [2] = assay: In vivo antibacterial activity against Pseudomonas aeruginosa ATCC 9027 infected C57BL6 mouse corneal infection model assessed as reduction in bacterial burden at 3 mg/ml, TOP 4 times in a day for 2 consecutive days; format: functional; conditions: time 2 day
Staphylococcus aureus [3] = assay: In vivo antibacterial activity against Staphylococcus aureus ATCC 29213 infected C57BL6 mouse corneal infection model assessed as reduction in bacterial burden at 50 mg/ml, TOP 4 times in a day for 3 consecutive days; format: functional; conditions: time 3 day
[4] = Hemolytic activity against rabbit blood cells incubated for 1 hr relative to control; format: toxicity, cell-based, Oryctolagus cuniculus, Erythrocyte; conditions: rabbit blood cells (erythrocytes)
Escherichia coli [5] = assay: Antibacterial activity against Escherichia coli ATCC 25922 assessed as inhibition of bacterial growth incubated for 24 hrs by broth dilution method; format: functional
Escherichia coli [6] = assay: Bactericidal activity against Escherichia coli ATCC 25922 assessed as bacterial reduction at 8 time of MIC concentration incubated for 2 hrs by time-kill assay; format: functional
Staphylococcus aureus [7] = assay: Antibacterial activity against methicillin-resistant Staphylococcus aureus N315 assessed as inhibition of bacterial growth incubated for 24 hrs by broth dilution method; format: functional
Acinetobacter baumannii [8] = assay: Antibacterial activity against Acinetobacter baumannii ATCC 17978 assessed as inhibition of bacterial growth incubated for 24 hrs by broth dilution method; format: functional
Klebsiella pneumoniae [9] = assay: Antibacterial activity against Klebsiella pneumoniae ATCC 14581 assessed as inhibition of bacterial growth incubated for 24 hrs by broth dilution method; format: functional
Acinetobacter baumannii [10] = assay: Antibacterial activity against Acinetobacter baumannii R2889 assessed as inhibition of bacterial growth incubated for 24 hrs by broth dilution method; format: functional
Staphylococcus aureus [11] = assay: Antibacterial activity against methicillin-resistant Staphylococcus aureus NCTC 10442 assessed as inhibition of bacterial growth incubated for 24 hrs by broth dilution method; format: functional
Klebsiella pneumoniae [12] = assay: Antibacterial activity against Klebsiella pneumoniae ATCC 10031 assessed as inhibition of bacterial growth incubated for 24 hrs by broth dilution method; format: functional
Pseudomonas aeruginosa [13] = assay: Antibacterial activity against Pseudomonas aeruginosa ATCC 9027 assessed as inhibition of bacterial growth incubated for 24 hrs by broth dilution method; format: functional
Staphylococcus aureus [14] = assay: Antibacterial activity against Staphylococcus aureus ATCC 29213 assessed as inhibition of bacterial growth incubated for 24 hrs by broth dilution method; format: functional

| Structure (SMILES) | Ratio (Staphylococcus aureus [1]) | Activity (Pseudomonas aeruginosa [2]) [log10FFU/ml] | Activity (Staphylococcus aureus [3]) [log10FFU/ml] | HC50 at 1 h [4] [µg/mL] | MIC (Escherichia coli [5]) [µg/mL] | Activity (Escherichia coli [6]) [log10FFU/ml] | MIC (Staphylococcus aureus [7]) [µg/mL] | MIC (Acinetobacter baumannii [8]) [µg/mL] | MIC (Klebsiella pneumoniae [9]) [µg/mL] | MIC (Acinetobacter baumannii [10]) [µg/mL] | MIC (Staphylococcus aureus [11]) [µg/mL] | MIC (Klebsiella pneumoniae [12]) [µg/mL] | MIC (Pseudomonas aeruginosa [13]) [µg/mL] | MIC (Staphylococcus aureus [14]) [µg/mL] |
| --- | --- | --- | --- | --- | --- | --- | --- | --- | --- | --- | --- | --- | --- | --- |
| CCn1cc(C(=O)O)c(=O)c2cc(F)c(N3CCNCC3)cc21 [NORFLOXACIN] | 128 | – | – | – | – | – | – | – | – | – | – | – | – | – |
| NC[C@H]1O[C@H](O[C@H]2[C@H](O)[C@@H](O[C@H]3O[C@H](CO)[C@@H](O)[C@H](N)[C@H]3O)[C@H](N)C[C@@H]2N)[C@H](N)C[C@@H]1O [TOBRAMYCIN] | – | 4.64 | 5.21 | – | – | – | – | – | – | – | – | – | – | – |
| CC1(C)S[C@@H]2[C@H](NC(=O)[C@H](N)c3ccc(O)cc3)C(=O)N2[C@H]1C(=O)O [AMOXICILLIN] | 8 | – | – | > 200 | 6.25 (≈ 17.1 µM) | 2.9 | – | – | – | – | – | – | – | – |
| C=C(C)[C@@H]1CCC(C)=C[C@H]1c1c(OCCCCCCCCCCN)cc(CCCCC)cc1OCCCCCCCCCCN | – | – | – | > 200 | > 50 | – | > 50 | > 50 | > 50 | > 50 | > 50 | > 50 | > 50 | > 50 |
| C=C(C)[C@@H]1CCC(C)=C[C@H]1c1c(OCCCCN(C)CCCN(C)CCCNC)cc(CCCCC)cc1OCCCCN(C)CCCN(C)CCCNC | – | – | – | > 200 | 3.12 (≈ 4.06 µM) | – | 3.12 (≈ 4.06 µM) | 6.25 (≈ 8.12 µM) | 6.25 (≈ 8.12 µM) | 3.12 (≈ 4.06 µM) | 1.56 (≈ 2.03 µM) | 6.25 (≈ 8.12 µM) | 6.25 (≈ 8.12 µM) | 1.56 (≈ 2.03 µM) |
| C=C(C)[C@@H]1CCC(C)=C[C@H]1c1c(OCCCCCCCCCCNC(=N)N)cc(CCCCC)cc1OCCCCCCCCCCNC(=N)N | – | – | – | > 200 | > 50 | – | > 50 | > 50 | > 50 | > 50 | 50 (≈ 70.5 µM) | > 50 | > 50 | 50 (≈ 70.5 µM) |
| C=C(C)[C@@H]1CCC(C)=C[C@H]1c1c(O)cc(CCCCC)cc1O [CANNABIDIOL] | – | – | – | > 200 | > 100 | – | 1.56 (≈ 4.96 µM) | > 50 | > 50 | > 50 | 3.12 (≈ 9.94 µM) | > 50 | > 50 | 3.12 (≈ 9.94 µM) |
| C=C(C)[C@@H]1CCC(C)=C[C@H]1c1c(OCCCCCCCCCCBr)cc(CCCCC)cc1OCCCCCCCCCCBr | – | – | – | > 200 | > 50 | – | > 50 | > 50 | > 50 | > 50 | > 50 | > 50 | > 50 | > 50 |
| C=C(C)[C@@H]1CCC(C)=C[C@H]1c1c(OCCCCI)cc(CCCCC)cc1OCCCCI | – | – | – | > 200 | > 100 | – | > 50 | > 50 | > 50 | > 50 | > 50 | > 50 | > 50 | > 50 |
